Test results as given in patent US6613772B1, “Substituted 2-aryl-4-amino-chinazolines, method for the production and use thereof as medicaments” (Aventis Pharma Deutschland GmbH, priority 1997, dated 2003).

Tests used:
[1] = molecular target: T1, soluble guanylate cyclase (sGC) (Bos taurus, UniProt P16068+P19687); experiment: Activation of the soluble guanylate cyclase (cGMP enzyme immunoassay); format: biochemical; settings: test substance 50 μM; sGC isolated from bovine lung; [cGMP] test substance/[cGMP] control (basal activity, solvent); 37° C., 15 to 20 minutes
T1 construct: The sGC employed had been isolated from bovine lung; from tissue; host or cells: bovine lung
T1 sequence (P19687 1-691): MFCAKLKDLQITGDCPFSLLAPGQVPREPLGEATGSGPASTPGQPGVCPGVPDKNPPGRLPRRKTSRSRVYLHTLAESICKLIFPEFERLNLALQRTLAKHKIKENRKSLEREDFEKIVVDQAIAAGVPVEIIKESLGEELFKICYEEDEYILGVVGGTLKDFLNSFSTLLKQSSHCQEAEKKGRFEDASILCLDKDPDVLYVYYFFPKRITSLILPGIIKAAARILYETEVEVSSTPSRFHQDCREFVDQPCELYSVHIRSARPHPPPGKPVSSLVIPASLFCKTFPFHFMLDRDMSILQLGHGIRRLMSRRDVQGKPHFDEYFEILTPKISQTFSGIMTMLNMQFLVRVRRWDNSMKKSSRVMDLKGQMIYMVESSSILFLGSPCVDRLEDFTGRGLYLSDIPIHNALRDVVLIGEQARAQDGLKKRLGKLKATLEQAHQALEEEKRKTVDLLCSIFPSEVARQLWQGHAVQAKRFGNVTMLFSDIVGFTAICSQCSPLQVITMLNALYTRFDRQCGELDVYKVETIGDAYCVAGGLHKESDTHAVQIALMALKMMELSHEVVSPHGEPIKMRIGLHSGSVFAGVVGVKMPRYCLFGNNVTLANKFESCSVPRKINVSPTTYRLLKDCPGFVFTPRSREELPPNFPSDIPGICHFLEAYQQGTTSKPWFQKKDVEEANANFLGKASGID
T1 sequence (P16068 1-619): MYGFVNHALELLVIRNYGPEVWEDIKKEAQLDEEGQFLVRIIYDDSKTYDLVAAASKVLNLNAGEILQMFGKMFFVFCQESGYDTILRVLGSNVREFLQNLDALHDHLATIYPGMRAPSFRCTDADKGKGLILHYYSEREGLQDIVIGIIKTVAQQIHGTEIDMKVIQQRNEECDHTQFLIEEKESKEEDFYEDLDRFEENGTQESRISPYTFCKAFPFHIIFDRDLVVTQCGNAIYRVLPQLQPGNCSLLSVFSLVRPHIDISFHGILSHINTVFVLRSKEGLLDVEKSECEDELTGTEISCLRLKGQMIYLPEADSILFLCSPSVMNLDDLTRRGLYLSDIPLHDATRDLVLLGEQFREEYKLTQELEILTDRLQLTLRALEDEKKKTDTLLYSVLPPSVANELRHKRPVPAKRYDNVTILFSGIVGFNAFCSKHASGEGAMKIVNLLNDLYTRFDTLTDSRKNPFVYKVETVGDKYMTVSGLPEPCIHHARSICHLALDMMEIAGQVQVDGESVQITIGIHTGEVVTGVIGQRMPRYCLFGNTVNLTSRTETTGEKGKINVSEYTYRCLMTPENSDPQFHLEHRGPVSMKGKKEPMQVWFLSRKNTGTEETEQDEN
Description: Activation of the Soluble Guanylate Cyclase
The activation of the soluble guanylate cyclase (sGC), which catalyzes the conversion of guanosine triphosphate (GTP) into cyclic guanosine monophosphate (cGMP) and pyrophosphate, by the compounds according to the invention was quantified with the aid of an enzyme immunoassay (EIA) from Amersham. For this, the test substances were first incubated with sGC in microtiter plates and then the amount of resulting cGMP was determined. The sGC employed had been isolated from bovine lung (see Methods in Enzymology, Volume 195, p. 377). The test solutions (100 μl per well) contained 50 mM triethanolamine (TEA) buffer (pH 7.5), 3 mM MgCl2, 3 mM reduced glutathione (GSH), 0.1 mM GTP, 1 mM 3-isobutyl-1-methylxanthine (IBMX), suitably diluted enzyme solution and the test substance or, in the case of the control experiments, solvent. The test substances were dissolved in dimethyl sulfoxide (DMSO) and the solution was diluted with DMSO/water such that the final concentration of test substance in the test solution was 50 μM. The DMSO concentration in the test solution was 5% (v/v). The reaction was started by addition of the sGC. The reaction mix was incubated at 37° C. for 15 to 20 minutes and then stopped by ice-cooling and addition of the stop reagent (50 mM EDTA, pH 8.0). An aliquot of 50 μl was taken and employed for the determination of the cGMP content using the acetylation protocol of the Amersham cGMP EIA kit. The absorption of the samples was measured at 450 nm (reference wavelength 620 nm) in a microtiter plate reader. The cGMP concentration was determined by means of a calibration curve which was obtained under the same experimental conditions. The activation of the sGC by a test substance is indicated as n-fold stimulation of the basal enzyme activity which was found in the control experiments (with solvent instead of test substance calculated according to the formula
n-fold stimulation=[cGMP]test substance/[cGMP]control).

Structure (SMILES) | melting point | n-fold Stimulation [1]
COCCNc1nc(-c2ccc(Cl)cc2)nc2cc(OC)c(OC)cc12 [Example 36, 2-(4-Chlorophenyl)-4-(2-methoxyethylamino)-6,7-dimethoxyquinazoline] | 178 °C | 5 n-fold
COc1cc2nc(-c3ccc(C)cc3)nc(NCc3cccnc3)c2cc1OC [Example 38, 2-(4-Methylphenyl)-4-((3-pyridylmethyl)amino)-6,7-dimethoxyquinazoline] | 239 °C | 7 n-fold
COc1cc2nc(-c3ccc(C(F)(F)F)cc3)nc(NCCO)c2cc1OC [Example 42, 2-(4-Trifluoromethylphenyl)-4-(2-hydroxyethylamino)-6,7-dimethoxyquinazoline] | 210 °C | 3 n-fold
COc1cc2nc(-c3ccc(C(F)(F)F)cc3)nc(NCc3cccnc3)c2cc1OC [Example 44, 2-(4-Trifluoromethylphenyl)-4-((3-pyridylmethyl)amino)-6,7-dimethoxyquinazoline] | 238 °C | 4 n-fold
COc1cc2c(N3CCC(C(N)=O)CC3)nc(-c3ccc(Cl)cc3)nc2c(OC)c1OC [Example 67, 2-(4-Chlorophenyl)-4-(4-aminocarbonylpiperidino)-6,7,8-trimethoxyquinazoline] | 215 °C | 7 n-fold
COc1cc2nc(-c3ccc(Cl)cc3)nc(NC3CCCC3)c2cc1OC [Example 92, 2-(4-Chlorophenyl)-4-cyclopentylamino-6,7-dimethoxyquinazoline] | 231 °C | 6 n-fold
COc1cc2nc(-c3ccc(Cl)cc3)nc(N[C@H]3CC[C@H](O)CC3)c2cc1OC [Example 93, 2-(4-Chlorophenyl)-4-(trans-4-hydroxycyclohexylamino)-6,7-dimethoxyquinazoline] | 261 °C | 14 n-fold
COc1cc2c(N[C@H]3CC[C@H](O)CC3)nc(-c3ccc(Cl)cc3)nc2c(OC)c1OC [Example 94, 2-(4-Chlorophenyl)-4-(trans-4-hydroxycyclohexylamino)-6,7,8-trimethoxyquinazoline] | 199 °C | 13 n-fold

Further lines, results first:

melting point | n-fold Stimulation [1] | Structure (SMILES)
148 °C | 5 n-fold | COc1cc2nc(-c3ccc(Cl)cc3)nc(N(C)C)c2cc1OC [Example 35, 2-(4-Chlorophenyl)-4-dimethylamino-6,7-dimethoxyquinazoline]
217 °C | 4 n-fold | COc1cc2nc(-c3ccc(C)cc3)nc(NCCO)c2cc1OC [Example 37, 2-(4-Methylphenyl)-4-(2-hydroxyethylamino)-6,7-dimethoxyquinazoline]
166 °C | 3 n-fold | COc1cc2nc(-c3ccc(C)cc3)nc(N3CCN(C)CC3)c2cc1OC [Example 39, 2-(4-Methylphenyl)-4-(4-methylpiperazino)-6,7-dimethoxyquinazoline]
191 °C | 6 n-fold | COc1cc2nc(-c3ccc(C)cc3)nc(N3CCN(c4ccccn4)CC3)c2cc1OC [Example 79, 2-(4-Methylphenyl)-4-(4-(2-pyridyl)piperazino)-6,7-dimethoxyquinazoline]
243 °C | 16 n-fold | COc1cc2nc(-c3ccc(C)cc3)nc(N[C@H]3CC[C@H](O)CC3)c2cc1OC [Example 96, 2-(4-Methylphenyl)-4-(trans-4-hydroxycyclohexylamino)-6,7-dimethoxyquinazoline]
101 °C | 8 n-fold | COc1cc2nc(-c3ccc(C)cc3)nc(NC3CCCC3)c2cc1OC [Example 98, 2-(4-Methylphenyl)-4-cyclopentylamino-6,7-dimethoxyquinazoline]
